Legend:
mtDNA [1] = test: ATAC-seq reads mapped to mtDNA after contacting the sample with dye; type: biochemical; settings: for Effect on mitochondrial DNA reads: ATAC-seq, increasing dye concentrations (FIGS. 2A-2C); for % Mapped to mtDNA: transposition and ATAC-seq
Experimental: (§1) A sample was obtained having both nuclear DNA and mtDNA. The sample was separated into various aliquots, and each aliquot was contacted with Hoechst 33258 dye in various concentrations, including 8 μM, 80 μM, and 800 μM. Each aliquot was then subjected to transposition and ATAC-seq, and the DNA reads were analyzed.
(§2) As shown in FIGS. 2A-2C, Hoechst dye selectively stained mtDNA, preventing transposition into mtDNA, but allowing transposition of nuclear DNA. […] The methods and compositions may be used for bulk ATAC-seq or single cell ATAC-seq to inhibit, reduce, or eliminate undesired mtDNA sequencing reads.

gDNA (nuclear) = test: ATAC-seq reads mapped to nuclear gDNA after contacting the sample with dye; type: biochemical; settings: transposition and ATAC-seq
Experimental: as §1, §2

nucleosome positioning = test: ATAC-seq profiles (nucleosome positioning) with dyes compared to no dye control; type: biochemical; settings: FIG. 4; compared to the no dye control
Experimental: A sample was obtained having both nuclear DNA and mtDNA. The sample was separated into various aliquots, and each aliquot was contacted with a different dye in various concentrations. Five different dyes were used, including Hoechst (at concentrations of 50 μM, 25 μM, 12 μM, 6 μM, 3 μM, and 0.6 μM), SYBR Gold (at concentrations of 500 μM, 50 μM, 5 μM, 0.5 μM, and 0.1 μM), Sytox Orange (at concentrations of 500 μM, 50 μM, 5 μM, 0.5 μM, and 0.1 μM), PicoGreen (at concentrations of 100 μM, 10 μM, 1 μM, 0.1 μM, and 0.02 μM), and Qubit (at concentrations of 100 μM, 10 μM, 1 μM, 0.1 μM, and 0.02 μM), as shown in FIGS. 3A-3C. Another aliquot was prepared that was not exposed to any dye. Each aliquot was then subjected Nextera transposition and products were visualized on a gel. FIG. 3A depicts the gel for Hoechst and SYBR Gold. FIG. 3B depicts the gel for Sytox Orange and PicoGreen, and FIG. 3C depicts the gel for Qubit and no dye. High molecular weight DNA products are indicative of inefficient transposition.
Hoechst allows relatively unbiased ATAC-seq profiling while not changing nucleosome positioning.

mtDNA [2] = test: DAPI staining of samples; type: binding
From the text: In addition to performing transposition and ATAC-seq, the samples were also stained. […] DAPI stained DNA, but not at certain locations.

[3] = Concentration of Hoechst 800 μM

Structure (SMILES)	Effect on mitochondrial DNA reads (mtDNA [1])	Effect on mitochondrial DNA reads (mtDNA [1]; listed as Hoechst dye)	% Mapped to mtDNA (mtDNA [1]; Concentration of Hoechst 8 μM)	% Mapped to mtDNA (mtDNA [1]; Concentration of Hoechst 80 μM)	% Mapped to mtDNA (mtDNA [1]; [3])	% Mapped to gDNA (nuclear) (gDNA (nuclear); Concentration of Hoechst 8 μM)	% Mapped to gDNA (nuclear) (gDNA (nuclear); Concentration of Hoechst 80 μM)	% Mapped to gDNA (nuclear) (gDNA (nuclear); [3])	Effect on ATAC-seq profiles (nucleosome positioning) (nucleosome positioning)	Staining of mtDNA versus actively transcribed regions of nuclear DNA (mtDNA [2])
CN1CCN(c2ccc3[nH]c(-c4ccc5[nH]c(-c6ccc(O)cc6)nc5c4)nc3c2)CC1 [Hoechst, Hoechst 33258]	reduces mitochondrial DNA reads	decreasing mtDNA reads	32%	11%	0%	68%	89%	100%	does not alter the ATAC-seq profiles	
N=C(N)c1ccc(-c2cc3ccc(C(=N)N)cc3[nH]2)cc1 [DAPI, 4′, 6-diamidino-2-phenylindole]										staining of mtDNA took place but not of actively transcribed (ATAC) regions of nuclear DNA

Reference: patent US20250341026A1, “METHODS AND MEANS FOR PREPARING A LIBRARY FOR SEQUENCING” (Illumina, Inc., priority 2018, published 2025)
